According to patent US20070054868A1, “Synergistic polyphenol compounds, compositions thereof, and uses thereof” (The Trustees of Columbia University in the City of New York, priority 2005, published 2007):

Experiments:
[1] = tested on: AP-1 promoter; assay: Transient transfection luciferase reporter assay in SW837 cells; assay type: cell-based, human; details: 10 and 20 μg/mL, 24 hours, inhibition most apparent for this promoter
Procedure: (§1) Reporter assays were performed performed using the methods described in Suzui, et al., Cancer Res., 62:3997-4006 (2002). The COX-2-luciferase reporter plasmid phPES2(−327/+59) was provided by the National Cardiovascular Research Institute (Osaka, Japan). The pAP-1 luciferase reporter plasmid was provided by the National Cancer Institute (Bethesda, Md.). The NF-[…]B promoter luciferase reporter plasmid […]NF-[…]B-Luc is described in Masuda et al., Clin. Cancer Res. 7:4220-4229 (2001). One μg of DNA of the indicated luciferase reporter plasmid was transfected into SW837 human colon cancer cells (3.0×10^5 cells/35-mm diameter dish) using Lipofectin reagent (Invitrogen) in opti-MEM I medium (Invitrogen). After 24 hours the cells were treated with EGCG (0, 10, or 20 μg/mL) for 24 hours, and extracts were then prepared. Luciferase activities were determined using a luciferase assay system ([…]., Madison, Wis.). In all of these reporter assays the cells were also cotransfected with a CMV-[…]-galactosidase ([…]-gal) reporter. Luciferase activities were normalized with respect to the […]-gal activities, to correct for differences in transfection efficiency, using the methods described in Suzui, et al., Cancer Res., 62:3997-4006 (2002).

[2] = tested on: COX-2 promoter; assay: as above; assay type: cell-based, human; details: 10 and 20 μg/mL, 24 hours
Procedure: as §1

[3] = tested on: NF-κB promoter; assay: as above; assay type: cell-based, human; details: 10 and 20 μg/mL, 24 hours
Procedure: as §1

[4] = tested on: SW837 human colon cancer cells; assay: DNA fragmentation assay (Cell Death Detection ELISA), apoptosis; assay type: cell-based
Procedure: SW837 human colon cancer cells (5.0×10^5 cells/6-cm diameter dish) were treated with EGCG (1.0 or 20 μg/mL) for 48 or 96 hours, and samples were then prepared. Control cells were treated only with DMSO. The extent of DNA fragmentation at time 0 hours was set to 1 and increases expressed as fold activation.

(−)-epigallocatechin gallate
AP-1 luciferase reporter activity [1]: inhibition | COX-2 luciferase reporter activity [2]: inhibition | NF-κB luciferase reporter activity [3]: inhibition | apoptosis (DNA fragmentation) ([4]; 1.0 μg/mL, 96 hours): significant increase | apoptosis (DNA fragmentation) ([4]; 20 μg/mL, 48 hours): induction of apoptosis
